Drawing on patent EP4692090A1 (Shanghai Fosun Pharmaceutical (Group) Co., Ltd., priority 2023, dated 2024), this text covers IC50 for 32 compounds.

Like-named read-outs stand apart in the source and are kept apart here.

For one test, the target named is T1, ATR kinase (Homo sapiens, UniProt Q13535).
T1 construct: purchased Eurofins 14-953
Description: Inhibitory effect on ATR kinase activity (Caliper mobility shift, FAM-labeled RAD17 peptide substrate). The format is biochemical. On the procedure: Test Example 1: Inhibitory effect of the compounds of the present disclosure on ATR kinase activity
Test compounds to be tested were serially diluted with DMSO (maximum concentration 1 µM, 10 concentrations with 3-fold serial dilution) and added to the wells of a 384-well reaction plate (Corning, #4512). 1 nM ATR kinase (Eurofins, #14-953), 5 mM substrate (FAM-labeled RAD17 peptide, FAM-ASELPASQPQPFSAKKK), 5 mM ATP and the compounds with corresponding concentrations reacted in a kinase reaction solution (50 mM HEPES, pH 7.5; 0.0015% Brij-35; 10 mM MnCl2, total volume of 20 µL) at 28°C for 3 hours. The reaction was terminated by adding 30 µL of stop solution (100 mM HEPES, pH 7.5; 0.015% Brij-35; 0.2% Coating Reagent #3, PerkinElmer; 50 mM EDTA). The reaction plate was placed on a Caliper instrument (PerkinElmer) for testing. The relative inhibitory activity of each compound concentration group was calculated using the following formula: % Inhibition = (Conversion rate of the blank control group without compound added - Conversion rate of the test compound group) / (Conversion rate of the blank control group - […]). The IC50 values were calculated using GraphPad analysis and fitted. […] Table 1. Inhibitory effect (IC50) of compounds on ATR kinase activity.

A further test deals with LoVo cells. Description: LoVo cell proliferation assay (CellTiter-Glo). The format is cell-based. Particulars: maximum concentration 10 µM, 9 concentrations. On the procedure:
Test Example 2: LoVo cell proliferation assay
LoVo (ATCC, #CRL-229) cells in logarithmic growth phase were digested, counted, and plated into 96-well cell culture plates at 2,000 cells per well. The plates containing cells were incubated overnight at 37°C in a 5% CO2 incubator, and then test compounds with 3-fold gradient dilutions (maximum concentration: 10 µM, 9 concentrations) were added. DMSO was used as a blank control. After the LoVo cells containing the compounds or DMSO were incubated for an additional 5 days, an equal volume of CellTiter-Glo reagent (Promega, #7573) was added. After incubation at room temperature for 30 minutes, chemiluminescence was read using an Envision 2105 (PerkinElmer). The cell proliferation inhibition rate (%) for wells treated with each concentration of the compounds was calculated using the following formula. Then, with compound concentration as the horizontal axis and cell proliferation inhibition rate (%) as the vertical axis, GraphPad software was used to plot the data and determine the IC50 values of the test compounds. The results are shown in Table 2, wherein the IC50 ranges are defined as follows: A: ≤ 100 nM; 1000 nM ≥ B > 100 nM; C > 1000 nM.
Cell proliferation inhibition (%) = (1 - luminescence value of compound-treated group / average luminescence value of DMSO blank control group) × 100. Table 2. Inhibitory effect of compounds on LoVo growth

Where [1] appears, read: 1 nM ATR kinase (Eurofins), 28°C for 3 hours, maximum concentration 1 µM, 10 concentrations, read-out: ATR kinase IC50.
Where [2] appears, read: LoVo cells, 2,000 cells per well, 5 days incubation, CellTiter-Glo, read-out: LoVo IC50.
Setting [3] is: Homo sapiens, LoVo, 120 h, LoVo cells, 2,000 cells per well, 5 days incubation, CellTiter-Glo, read-out: LoVo IC50.
The mark [4] stands for this setting: read-out: ATR kinase IC50, 1 nM ATR kinase (Eurofins), 28°C for 3 hours, maximum concentration 1 µM, 10 concentrations.
The mark [5] stands for this setting: Homo sapiens, LoVo, 120 h, read-out: LoVo IC50 (nM), LoVo cells, 2,000 cells per well, 5 days incubation, CellTiter-Glo.
The mark [6] stands for this setting: read-out: LoVo IC50, LoVo cells, 2,000 cells per well, 5 days incubation, CellTiter-Glo.

T1 sequence (Q13535 whole entry): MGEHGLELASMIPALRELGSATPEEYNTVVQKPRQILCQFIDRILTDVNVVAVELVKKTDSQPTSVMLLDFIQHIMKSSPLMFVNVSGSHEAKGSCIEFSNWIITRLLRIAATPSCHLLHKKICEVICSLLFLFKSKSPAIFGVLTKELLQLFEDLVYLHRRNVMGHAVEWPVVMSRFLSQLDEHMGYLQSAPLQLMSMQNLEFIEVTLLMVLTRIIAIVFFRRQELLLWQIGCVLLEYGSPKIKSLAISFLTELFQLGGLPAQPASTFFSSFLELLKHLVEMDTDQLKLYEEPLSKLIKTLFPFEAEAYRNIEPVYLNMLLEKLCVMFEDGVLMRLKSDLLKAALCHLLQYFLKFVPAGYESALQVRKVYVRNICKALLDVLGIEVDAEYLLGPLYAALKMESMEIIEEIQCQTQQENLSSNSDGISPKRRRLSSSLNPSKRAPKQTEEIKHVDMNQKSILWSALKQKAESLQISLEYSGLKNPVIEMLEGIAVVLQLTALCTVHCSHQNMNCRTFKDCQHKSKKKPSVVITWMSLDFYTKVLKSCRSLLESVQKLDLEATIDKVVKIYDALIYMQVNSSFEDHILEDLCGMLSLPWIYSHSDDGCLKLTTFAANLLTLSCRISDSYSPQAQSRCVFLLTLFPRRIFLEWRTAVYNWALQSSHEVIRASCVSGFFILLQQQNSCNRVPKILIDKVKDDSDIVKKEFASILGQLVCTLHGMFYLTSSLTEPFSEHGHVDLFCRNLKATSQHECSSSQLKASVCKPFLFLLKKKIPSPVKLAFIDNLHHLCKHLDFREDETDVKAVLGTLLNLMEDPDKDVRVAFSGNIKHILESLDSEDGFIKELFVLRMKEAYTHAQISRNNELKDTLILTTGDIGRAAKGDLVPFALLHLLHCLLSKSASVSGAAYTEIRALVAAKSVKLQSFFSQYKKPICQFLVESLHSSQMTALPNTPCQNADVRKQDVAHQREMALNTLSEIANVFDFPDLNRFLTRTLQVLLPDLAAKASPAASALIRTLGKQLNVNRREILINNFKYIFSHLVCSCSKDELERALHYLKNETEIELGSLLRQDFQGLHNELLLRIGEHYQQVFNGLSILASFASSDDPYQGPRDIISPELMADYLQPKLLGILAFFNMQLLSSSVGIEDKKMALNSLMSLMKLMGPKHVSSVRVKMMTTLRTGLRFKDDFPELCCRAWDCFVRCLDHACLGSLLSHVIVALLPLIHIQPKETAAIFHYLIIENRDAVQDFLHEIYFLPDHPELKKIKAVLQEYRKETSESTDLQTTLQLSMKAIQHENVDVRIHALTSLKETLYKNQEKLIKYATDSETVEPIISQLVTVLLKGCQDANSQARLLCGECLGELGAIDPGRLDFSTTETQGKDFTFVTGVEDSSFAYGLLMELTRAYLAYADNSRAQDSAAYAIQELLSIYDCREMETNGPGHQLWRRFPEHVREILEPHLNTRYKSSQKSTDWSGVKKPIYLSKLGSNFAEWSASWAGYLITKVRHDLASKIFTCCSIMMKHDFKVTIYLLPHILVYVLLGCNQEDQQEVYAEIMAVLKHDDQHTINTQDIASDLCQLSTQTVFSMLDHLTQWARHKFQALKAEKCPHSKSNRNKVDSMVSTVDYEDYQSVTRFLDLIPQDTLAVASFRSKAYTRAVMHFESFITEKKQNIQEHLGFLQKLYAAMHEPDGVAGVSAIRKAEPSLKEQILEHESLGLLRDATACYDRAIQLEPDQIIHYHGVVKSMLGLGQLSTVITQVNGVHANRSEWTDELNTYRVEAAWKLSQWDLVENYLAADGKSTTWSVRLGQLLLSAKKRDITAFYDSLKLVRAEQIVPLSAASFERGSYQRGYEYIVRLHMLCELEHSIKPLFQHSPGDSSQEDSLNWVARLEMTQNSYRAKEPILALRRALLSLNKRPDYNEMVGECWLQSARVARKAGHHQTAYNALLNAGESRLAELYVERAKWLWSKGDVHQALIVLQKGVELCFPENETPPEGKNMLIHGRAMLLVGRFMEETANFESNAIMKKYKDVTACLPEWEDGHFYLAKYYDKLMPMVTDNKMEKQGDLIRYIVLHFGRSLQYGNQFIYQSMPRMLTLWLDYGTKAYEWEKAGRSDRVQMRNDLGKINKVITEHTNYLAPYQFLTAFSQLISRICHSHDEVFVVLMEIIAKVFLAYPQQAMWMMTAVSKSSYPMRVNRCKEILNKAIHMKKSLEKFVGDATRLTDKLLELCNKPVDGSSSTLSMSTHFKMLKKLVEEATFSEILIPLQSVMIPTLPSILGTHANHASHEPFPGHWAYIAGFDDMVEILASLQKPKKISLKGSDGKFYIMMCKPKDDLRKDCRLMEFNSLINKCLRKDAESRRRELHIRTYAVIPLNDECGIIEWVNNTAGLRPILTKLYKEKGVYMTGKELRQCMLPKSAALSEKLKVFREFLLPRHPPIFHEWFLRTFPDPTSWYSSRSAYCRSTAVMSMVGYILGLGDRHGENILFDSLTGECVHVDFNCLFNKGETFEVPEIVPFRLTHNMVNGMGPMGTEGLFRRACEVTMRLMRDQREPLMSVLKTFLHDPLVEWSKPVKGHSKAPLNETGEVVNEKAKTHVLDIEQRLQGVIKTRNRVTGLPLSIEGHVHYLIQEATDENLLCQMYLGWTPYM
T1 sequence (Q8WXE1 whole entry partner): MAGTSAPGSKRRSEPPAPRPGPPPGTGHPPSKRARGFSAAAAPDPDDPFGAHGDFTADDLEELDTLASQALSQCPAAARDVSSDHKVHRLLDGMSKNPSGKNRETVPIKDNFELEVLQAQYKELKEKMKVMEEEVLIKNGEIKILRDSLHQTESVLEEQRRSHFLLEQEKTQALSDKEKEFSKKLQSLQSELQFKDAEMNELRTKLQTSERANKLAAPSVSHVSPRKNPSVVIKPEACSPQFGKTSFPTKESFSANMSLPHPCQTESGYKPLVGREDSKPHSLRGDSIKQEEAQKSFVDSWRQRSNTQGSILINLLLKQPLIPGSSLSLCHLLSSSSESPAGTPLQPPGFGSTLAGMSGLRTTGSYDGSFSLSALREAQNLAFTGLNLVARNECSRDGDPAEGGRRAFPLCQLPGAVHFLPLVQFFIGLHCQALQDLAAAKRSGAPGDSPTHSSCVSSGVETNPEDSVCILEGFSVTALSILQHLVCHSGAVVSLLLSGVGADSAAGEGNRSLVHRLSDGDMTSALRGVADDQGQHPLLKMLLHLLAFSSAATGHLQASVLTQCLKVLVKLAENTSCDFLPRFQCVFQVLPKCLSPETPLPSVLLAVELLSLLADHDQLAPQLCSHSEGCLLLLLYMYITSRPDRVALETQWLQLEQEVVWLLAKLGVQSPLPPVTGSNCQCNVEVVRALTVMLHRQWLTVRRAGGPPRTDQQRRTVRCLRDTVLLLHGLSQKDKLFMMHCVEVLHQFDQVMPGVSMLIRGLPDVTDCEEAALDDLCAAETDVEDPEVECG

`C[C@@H]1COCCN1c1cc2c3c(nn(-c4cc[nH]n4)c3n1)CCN(C1CC(C(F)(F)F)C1)C2` (single isomer, unassigned) [Compound 13A]: the IC50 fell in the range of 10 to 100 nM on ATR kinase (setting [1]) and 100 to 1000 nM in the test on LoVo cells (setting [2]).
In the same order, the values of `C[C@@H]1COCCN1c1cc2c3c(nn(-c4cc[nH]n4)c3n1)CCN(C1CC(C(F)(F)F)C1)C2` (single isomer, unassigned) [Compound 13B] are 100 to 1000 nM and greater than 1000 nM.
Regarding `C[C@@H]1COCCN1c1cc2c3c(nn(-c4cc[nH]n4)c3n1)CCN(C(=O)C1CC3(C1)CC3(F)F)C2` (single isomer, unassigned) [Compound 20A], the figures for the IC50 on ATR kinase (setting [1]) and with LoVo cells (setting [3]) were 10 to 100 nM and greater than 1000 nM, respectively.
As for `C[C@@H]1COCCN1c1cc2c3c(nn(-c4cc[nH]n4)c3n1)CCN(C(=O)C1CC3(C1)CC3(F)F)C2` (single isomer, unassigned) [Compound 20B], the figures for the IC50 on ATR kinase (setting [1]) and in the test with LoVo cells (setting [2]) were 10 to 100 nM and greater than 1000 nM, respectively.
Consider `CC1c2cc(N3CCOC[C@H]3C)nc3c2c(nn3-c2cc[nH]n2)CCN1C1CC1` (single isomer, unassigned) [Compound 31A], for which the figures for the IC50 on ATR kinase (setting [1]) and with LoVo cells (setting [3]) were less than 10 nM and less than 100 nM, respectively.
On to `CC1c2cc(N3CCOC[C@H]3C)nc3c2c(nn3-c2cc[nH]n2)CCN1C1CC1` (single isomer, unassigned) [Compound 31B], for which the IC50 on ATR kinase (setting [1]) is less than 10 nM; in the test with LoVo cells (setting [2]), less than 100 nM.
On to `CC1c2cc(N3CCOC[C@H]3C)nc3c2c(nn3-c2cc[nH]n2)CCN1C1COC1` (single isomer, unassigned) [Compound 32A], for which the results for the IC50 on ATR kinase (setting [1]) and with LoVo cells (setting [3]) were 10 to 100 nM and 100 to 1000 nM, respectively.
Regarding `CC1c2cc(N3CCOC[C@H]3C)nc3c2c(nn3-c2cc[nH]n2)CCN1C1COC1` (single isomer, unassigned) [Compound 32B], the IC50 at ATR kinase (setting [1]) is 10 to 100 nM; in the test with LoVo cells (setting [2]), less than 100 nM.
Take `CC1c2cc(N3CCOC[C@H]3C)nc3c2c(nn3-c2cc[nH]n2)CCN1C(=O)C1(C(F)(F)F)CC1` (single isomer, unassigned) [Compound 33A]: the IC50 on ATR kinase (setting [4]) was less than 10 nM; with LoVo cells (setting [5]), less than 100 nM.
With `CC1c2cc(N3CCOC[C@H]3C)nc3c2c(nn3-c2cc[nH]n2)CCN1C(=O)C1(C(F)(F)F)CC1` (single isomer, unassigned) [Compound 33B], the IC50 on ATR kinase (setting [4]) and in the test with LoVo cells (setting [6]) was 100 to 1000 nM throughout.
`CC1c2cc(N3CCOC[C@H]3C)nc3c2c(nn3-c2cc[nH]n2)CCN1C` (single isomer, unassigned) [Compound 35A]: the IC50 on ATR kinase (setting [1]) was less than 10 nM; with LoVo cells (setting [3]) it was less than 100 nM.
Take `CC1c2cc(N3CCOC[C@H]3C)nc3c2c(nn3-c2cc[nH]n2)CCN1C` (single isomer, unassigned) [Compound 35B]: at ATR kinase (setting [1]), the IC50 was less than 10 nM.
On to `CC(C)N1CCc2nn(-c3cc[nH]n3)c3nc(N4CCOC[C@H]4C)cc(c23)C1C` (single isomer, unassigned) [Compound 36A], for which the IC50 is less than 10 nM on ATR kinase (setting [1]) and 100 to 1000 nM in the test on LoVo cells (setting [3]).
As to `CC(C)N1CCc2nn(-c3cc[nH]n3)c3nc(N4CCOC[C@H]4C)cc(c23)C1C` (single isomer, unassigned) [Compound 36B], the IC50 on ATR kinase (setting [1]) is less than 10 nM; in the test with LoVo cells (setting [2]), less than 100 nM.
As for `CC1c2cc(N3CCOC[C@H]3C)nc3c2c(nn3-c2cc[nH]n2)CCN1S(=O)(=O)C1CC1` (single isomer, unassigned) [Compound 37A], the IC50 on ATR kinase (setting [1]) is 10 to 100 nM; in the test on LoVo cells (setting [3]), less than 100 nM.
As for `CC1c2cc(N3CCOC[C@H]3C)nc3c2c(nn3-c2cc[nH]n2)CCN1S(=O)(=O)C1CC1` (single isomer, unassigned) [Compound 37B], the IC50 on ATR kinase (setting [1]) is less than 10 nM; in the test with LoVo cells (setting [2]) it was less than 100 nM.
`CC1c2cc(N3CCOC[C@H]3C)nc3c2c(nn3-c2cc[nH]n2)CCN1S(C)(=O)=O` (single isomer, unassigned) [Compound 39A]: the IC50 at ATR kinase (setting [1]) is less than 10 nM; with LoVo cells (setting [2]), less than 100 nM.
Consider `CC1c2cc(N3CCOC[C@H]3C)nc3c2c(nn3-c2cc[nH]n2)CCN1S(C)(=O)=O` (single isomer, unassigned) [Compound 39B], for which the IC50 was less than 10 nM at ATR kinase (setting [1]) and greater than 1000 nM in the test on LoVo cells (setting [2]).
In the case of `CC1c2cc(N3CCOC[C@H]3C)nc3c2c(nn3-c2cc[nH]n2)CCN1C(=O)C1(C#N)CC1` (single isomer, unassigned) [Compound 40A], the IC50 is less than 10 nM on ATR kinase (setting [4]) and 100 to 1000 nM in the test with LoVo cells (setting [5]).
For the compound `CC1c2cc(N3CCOC[C@H]3C)nc3c2c(nn3-c2cc[nH]n2)CCN1C(=O)C1(C#N)CC1` (single isomer, unassigned) [Compound 40B], the IC50 on ATR kinase (setting [4]) was in the range of 10 to 100 nM; in the test on LoVo cells (setting [6]), 100 to 1000 nM.
On to `CCN1CCc2nn(-c3cc[nH]n3)c3nc(N4CCOC[C@H]4C)cc(c23)C1C` (single isomer, unassigned) [Compound 41A], for which the IC50 is less than 10 nM on ATR kinase (setting [1]) and less than 100 nM in the test on LoVo cells (setting [3]).
Take `CCN1CCc2nn(-c3cc[nH]n3)c3nc(N4CCOC[C@H]4C)cc(c23)C1C` (single isomer, unassigned) [Compound 41B]: the figures for the IC50 at ATR kinase (setting [1]) and with LoVo cells (setting [2]) were less than 10 nM and less than 100 nM, respectively.
As to `CC1c2cc(N3CCOC[C@H]3C)nc3c2c(nn3-c2cc[nH]n2)CCN1C1(C#N)CC1` (single isomer, unassigned) [Compound 42A], the values for the IC50 on ATR kinase (setting [1]) and in the test on LoVo cells (setting [3]) were less than 10 nM and less than 100 nM, respectively.
On to `CC1c2cc(N3CCOC[C@H]3C)nc3c2c(nn3-c2cc[nH]n2)CCN1C1(C#N)CC1` (single isomer, unassigned) [Compound 42B], for which the IC50 on ATR kinase (setting [1]) is 10 to 100 nM; with LoVo cells (setting [2]) it was less than 100 nM.
As for `CC1c2cc(N3CCOC[C@H]3C)nc3c2c(nn3-c2cc[nH]n2)CCN1CC1COC1` (single isomer, unassigned) [Compound 44A], the IC50 at ATR kinase (setting [1]) was 10 to 100 nM; in the test with LoVo cells (setting [3]) it was 100 to 1000 nM.
With `CC1c2cc(N3CCOC[C@H]3C)nc3c2c(nn3-c2cc[nH]n2)CCN1S(C)(=N)=O` (single isomer, unassigned) [Compound 46C], the figures for the IC50 at ATR kinase (setting [1]) and in the test with LoVo cells (setting [2]) were less than 10 nM and less than 100 nM, respectively.
Regarding `[2H]C([2H])([2H])N1CCc2nn(-c3cc[nH]n3)c3nc(N4CCOC[C@H]4C)cc(c23)C1C` (single isomer, unassigned) [Compound 47A], the IC50 is less than 10 nM at ATR kinase (setting [1]) and less than 100 nM in the test on LoVo cells (setting [3]).
`[2H]C([2H])([2H])N1CCc2nn(-c3cc[nH]n3)c3nc(N4CCOC[C@H]4C)cc(c23)C1C` (single isomer, unassigned) [Compound 47B]: the values for the IC50 on ATR kinase (setting [1]) and with LoVo cells (setting [2]) were less than 10 nM and less than 100 nM, respectively.
Consider `C[C@@H]1COCCN1c1cc2c3c(n1)c(-c1cc[nH]n1)nn3CCN2` [Compound 61, (R)-4-(1-(1H-pyrazol-3-yl)-4,5-dihydro-3H-2,2a,5,8-tetraazaacenaphthen-7-yl)-3-methylmorpholine], for which the IC50 at ATR kinase (setting [1]) fell in the range of 1000 to 2500 nM.
Regarding `C[C@@H]1COCCN1c1cc2c3c(n1)c(-c1cc[nH]n1)nn3CCC(=O)N2C1CC2(C1)CC(C)(O)C2` (stereo partly drawn) [Compound 94, (R)-6-(6-hydroxy-6-methylspiro[3.3]hept-2-yl)-4-(3-methylmorpholinyl)-2-(1H-pyrazol-3-yl)-8,9-dihydro-1,3,6,9a-tetraazabenzo[cd]azulene-7(6H)-one], at ATR kinase (setting [4]), the IC50 lay within 10 to 100 nM.
Regarding `CC(C(N)=O)N1C(=O)CCn2nc(-c3cc[nH]n3)c3nc(N4CCOC[C@H]4C)cc1c32` (stereo partly drawn) [Compound 104, 2-(4-((R)-3-methylmorpholino)-7-oxo-2-(1H-pyrazol-3-yl)-8,9-dihydro-1,3,6,9a-tetraazabenzo[cd]azulene-6(7H)-yl)propanamide], the IC50 at ATR kinase (setting [1]) lay within 10 to 100 nM.
On to `C[C@@H]1COCCN1c1cc2c3c(nn(-c4cc[nH]n4)c3n1)CCN(C)C2=O` [Compound 137, (R)-7-methyl-4-(3-methylmorpholinyl)-2-(1H-pyrazol-3-yl)-2,7,8,9-tetrahydro-6H-1,2,3,7-tetraazabenzo[cd]azulene-6-one], for which the IC50 at ATR kinase (setting [4]) was 10 to 100 nM.
